Laboratory results reported in article PMC5303205, “Comparative studies on the multi-component pharmacokinetics of Aristolochiae Fructus and honey-fried Aristolochiae Fructus extracts after oral administration in rats” (BMC Complementary and Alternative Medicine, 2017).
Read-outs that look alike come from different tables or passages of the source.

How the values were obtained:
[1] = Multi-component pharmacokinetics of AAs in rats after oral administration of AF and HAF extracts (HPLC-MS/MS of plasma); set-up: species or system Sprague–Dawley (SD) rats; details: Sprague-Dawley, rat, in vivo
Experimental: An aliquot (100 μl) of rat plasma was spiked with 10.0 μL IS, and vortexed with 300 μL acetic ether for 10 s before the supernatant was transferred into centrifuge tube. The extraction was repeated with 200 μL acetic ether. The combined organic layer was evaporated to dryness under a gentle stream of nitrogen at RT. The residue was resolved in 100 μL methanol and centrifuged at 15,800 × g for 10 min. The supernatant was used for HPLC-MS/MS analysis.
Chromatographic separation was performed by an Acquity C18 column (4.6 × 100 mm,3.5 μm) (Agilent Technologies, USA). The mobile phase was composed of water (containing 10 mM ammonium formate and formic acid, pH 3.0) (solvent A) and ACN (solvent B). The gradient profile of B was: 0–10 min, 35–38%; 10–11 min, 38– 60%; 11–17 min, 60–35%B; 17–18 min, 35%. The flow rate was kept at 0.5 mL/min. The column oven was set at 30 °C and the injection volume was 10 μL.
The mass spectrometer was operated in the positive ion electrospray mode with multiple reaction monitoring (MRM). The optimal MS parameters were set at the following parameters: a desolvation gas temperature of 450 °C, desolvation gas flow of 10 L/min, a nebulizer gas of 40 psi and a capillary voltage of 4000 V. The mass spectrometry conditions of AA I, AA II, AA C, AA D, 7-OH AA I and IS are summarized in Additional file 1: Table S1.
The rats were randomly divided into 6 groups (low, middle and high doses of AF and HAF; n = 6). After a week of acclimation, the animals were fasted for 12 h with free access to water. Then, AF and HAF extracts were administered to the rats. The extracts were suspended in 0.5% CMC–Na solution, and the oral doses (according to AA I in the extracts) were 3.0 mg/kg, 8.0 mg/kg and 15.0 mg/kg, respectively.
Blood samples were collected from the ocular vein using dried heparinized tubes at 0, 0.083, 0.17, 0.33, 0.50, 0.67, 0.83, 1, 2, 4, 6, 8, 10, 12 and 24 h from the start. The animals received fluid replacement (sterile isotonic saline) after every two samplings since the fifth collecting. The samples were then immediately centrifuged at 3100 × g for 10 min. The plasma obtained was frozen and stored at –20 °C until analysis.
All statistical analyses were performed using the SPSS 11.0 software (Chicago, USA). P values <0.05 were considered statistically significant. Pharmacokinetic analysis was performed using the proprietary DAS 3.0 software (Mathematical Pharmacology Professional Committee of China, Shanghai, China).
After the oral administration of AF and HAF extracts, rat plasma samples were prepared and analyzed as described above. Five main AAs can be detected in rat blood with the proposed HPLC-MS/MS method. The mean pharmacokinetic parameters of five AAs in AF and HAF are summarized in Tables 4, 5 and Additional files 5, 6, 7: Tables S4-S6. The maximum concentration (C max) was the experimentally-observed value. The other pharmacokinetic parameters of the five analytes were fitted by DAS 3.0 software.

[2] = Stability of AAs in rat plasma (QC samples, HPLC-MS/MS); format: in vitro ADME; details: n = 5; for Short-term stability (RSD/%): fresh rat plasma at room temperature for 24 h before sample preparation; for Post-preparation stability (RSD/%): prepared rat plasma samples at room temperature for 24 h; for Long-term stability (RSD/%): rat plasma stored at –20 °C for 14 days; for Freeze-thaw stability (RSD/%): rat plasma, three freeze-thaw cycles (–20 °C 24 h, thawed at room temperature)
Experimental: The QC samples were assayed under several different conditions to evaluate the stability of AAs in rat plasma. The freeze-thaw stability of the analyte was determined over three freeze-thaw cycles. In each freeze-thaw cycle, the samples were frozen and stored at –20 °C for 24 h, then thawed at room temperature. To evaluate the long-term stability of AAs, the plasma samples were stored at –20 °C for 14 days. For the short-term stability, fresh plasma samples were kept at room temperature for 24 h before the sample preparation. After keeping the samples at room temperature for 24 h, post-preparation stability was tested. Stability was evaluated by comparing the mean concentration of the stored samples with the mean concentration of those prepared freshly. The stability data were acceptable when the bias was within ±15% of the actual value.

[3] = 3 mg/kg, AF extract, low dose (3.0 mg/kg as AA I), analyte dose mg/kg: AA I 3.0, AA II 0.21, AA C 1.42, AA D 1.60, 7-OH AA I 2.33, n = 6
[4] = 3 mg/kg, HAF extract, low dose (3.0 mg/kg as AA I), analyte dose mg/kg: AA I 3.0, AA II 0.26, AA C 1.53, AA D 1.51, 7-OH AA I 2.48, n = 6
[5] = 8 mg/kg, AF extract, mid dose (8.0 mg/kg as AA I), analyte dose mg/kg: AA I 8.0, AA II 0.56, AA C 3.78, AA D 4.26, 7-OH AA I 6.22, n = 6
[6] = 8 mg/kg, HAF extract, mid dose (8.0 mg/kg as AA I), analyte dose mg/kg: AA I 8.0, AA II 0.69, AA C 4.09, AA D 4.03, 7-OH AA I 6.62, n = 6
[7] = 15 mg/kg, AF extract, high dose (15.0 mg/kg as AA I), analyte dose mg/kg: AA I 15.0, AA II 1.05, AA C 7.09, AA D 8.00, 7-OH AA I 11.66, n = 6
[8] = 15 mg/kg, HAF extract, high dose (15.0 mg/kg as AA I), analyte dose mg/kg: AA I 15.0, AA II 1.29, AA C 7.66, AA D 7.56, 7-OH AA I 12.41, n = 6
[9] = high QC conc ng/mL: AA I 1830, AA II 3200, AA C 2980, AA D 3680, 7-OH AA I 3280
[10] = low QC conc ng/mL: AA I 1.83, AA II 8.00, AA C 186.3, AA D 36.8, 7-OH AA I 82.0
[11] = middle QC conc ng/mL: AA I 457.5, AA II 400, AA C 372.5, AA D 460, 7-OH AA I 410

COc1cc(O)cc2c1cc([N+](=O)[O-])c1c(C(=O)O)cc3c(c12)OCO3 [AA D]
AUC(0-inf) [1, 3]: 194 ng·h/mL | Cmax [1, 3]: 78.5 ng/mL | Tmax [1, 3]: 0.56 h | CL/F ([1]; 3 mg/kg, AF extract, low dose (3.0 mg/kg as AA I), analyte dose mg/kg: AA I 3.0, AA II 0.21, AA C 1.42, AA D 1.60, 7-OH AA I 2.33, n = 6, read-out: CLz/F (converted)): 168 mL/min/kg | Vd/F ([1]; 3 mg/kg, AF extract, low dose (3.0 mg/kg as AA I), analyte dose mg/kg: AA I 3.0, AA II 0.21, AA C 1.42, AA D 1.60, 7-OH AA I 2.33, n = 6, read-out: Vz/F): 35.7 L/kg | half-life ([1]; 3 mg/kg, AF extract, low dose (3.0 mg/kg as AA I), analyte dose mg/kg: AA I 3.0, AA II 0.21, AA C 1.42, AA D 1.60, 7-OH AA I 2.33, n = 6, read-out: t 1/2z (converted)): 2.45 h | AUC(0-inf) [1, 4]: 179 ng·h/mL | Cmax [1, 4]: 58.6 ng/mL | Tmax [1, 4]: 0.78 h | CL/F ([1]; 3 mg/kg, HAF extract, low dose (3.0 mg/kg as AA I), analyte dose mg/kg: AA I 3.0, AA II 0.26, AA C 1.53, AA D 1.51, 7-OH AA I 2.48, n = 6, read-out: CLz/F (converted)): 158 mL/min/kg | Vd/F ([1]; 3 mg/kg, HAF extract, low dose (3.0 mg/kg as AA I), analyte dose mg/kg: AA I 3.0, AA II 0.26, AA C 1.53, AA D 1.51, 7-OH AA I 2.48, n = 6, read-out: Vz/F): 30.6 L/kg | half-life ([1]; 3 mg/kg, HAF extract, low dose (3.0 mg/kg as AA I), analyte dose mg/kg: AA I 3.0, AA II 0.26, AA C 1.53, AA D 1.51, 7-OH AA I 2.48, n = 6, read-out: t 1/2z (converted)): 2.05 h | AUC(0-inf) [1, 5]: 402 ng·h/mL | Cmax [1, 5]: 126 ng/mL | Tmax [1, 5]: 0.56 h | CL/F ([1]; 8 mg/kg, AF extract, mid dose (8.0 mg/kg as AA I), analyte dose mg/kg: AA I 8.0, AA II 0.56, AA C 3.78, AA D 4.26, 7-OH AA I 6.22, n = 6, read-out: CLz/F (converted)): 359 mL/min/kg | Vd/F ([1]; 8 mg/kg, AF extract, mid dose (8.0 mg/kg as AA I), analyte dose mg/kg: AA I 8.0, AA II 0.56, AA C 3.78, AA D 4.26, 7-OH AA I 6.22, n = 6, read-out: Vz/F): 75.7 L/kg | half-life ([1]; 8 mg/kg, AF extract, mid dose (8.0 mg/kg as AA I), analyte dose mg/kg: AA I 8.0, AA II 0.56, AA C 3.78, AA D 4.26, 7-OH AA I 6.22, n = 6, read-out: t 1/2z (converted)): 2.43 h | AUC(0-inf) [1, 6]: 323 ng·h/mL | Cmax [1, 6]: 89.2 ng/mL | Tmax [1, 6]: 0.75 h | CL/F ([1]; 8 mg/kg, HAF extract, mid dose (8.0 mg/kg as AA I), analyte dose mg/kg: AA I 8.0, AA II 0.69, AA C 4.09, AA D 4.03, 7-OH AA I 6.62, n = 6, read-out: CLz/F (converted)): 190 mL/min/kg | Vd/F ([1]; 8 mg/kg, HAF extract, mid dose (8.0 mg/kg as AA I), analyte dose mg/kg: AA I 8.0, AA II 0.69, AA C 4.09, AA D 4.03, 7-OH AA I 6.62, n = 6, read-out: Vz/F): 37.8 L/kg | half-life ([1]; 8 mg/kg, HAF extract, mid dose (8.0 mg/kg as AA I), analyte dose mg/kg: AA I 8.0, AA II 0.69, AA C 4.09, AA D 4.03, 7-OH AA I 6.62, n = 6, read-out: t 1/2z (converted)): 2.3 h | AUC(0-inf) [1, 7]: 960 ng·h/mL | Cmax [1, 7]: 155 ng/mL | Tmax [1, 7]: 0.64 h | CL/F ([1]; 15 mg/kg, AF extract, high dose (15.0 mg/kg as AA I), analyte dose mg/kg: AA I 15.0, AA II 1.05, AA C 7.09, AA D 8.00, 7-OH AA I 11.66, n = 6, read-out: CLz/F (converted)): 560 mL/min/kg | Vd/F ([1]; 15 mg/kg, AF extract, high dose (15.0 mg/kg as AA I), analyte dose mg/kg: AA I 15.0, AA II 1.05, AA C 7.09, AA D 8.00, 7-OH AA I 11.66, n = 6, read-out: Vz/F): 153 L/kg | half-life ([1]; 15 mg/kg, AF extract, high dose (15.0 mg/kg as AA I), analyte dose mg/kg: AA I 15.0, AA II 1.05, AA C 7.09, AA D 8.00, 7-OH AA I 11.66, n = 6, read-out: t 1/2z (converted)): 2.89 h | AUC(0-inf) [1, 8]: 590 ng·h/mL | Cmax [1, 8]: 148 ng/mL | Tmax [1, 8]: 0.63 h | CL/F ([1]; 15 mg/kg, HAF extract, high dose (15.0 mg/kg as AA I), analyte dose mg/kg: AA I 15.0, AA II 1.29, AA C 7.66, AA D 7.56, 7-OH AA I 12.41, n = 6, read-out: CLz/F (converted)): 206 mL/min/kg | Vd/F ([1]; 15 mg/kg, HAF extract, high dose (15.0 mg/kg as AA I), analyte dose mg/kg: AA I 15.0, AA II 1.29, AA C 7.66, AA D 7.56, 7-OH AA I 12.41, n = 6, read-out: Vz/F): 47.9 L/kg | half-life ([1]; 15 mg/kg, HAF extract, high dose (15.0 mg/kg as AA I), analyte dose mg/kg: AA I 15.0, AA II 1.29, AA C 7.66, AA D 7.56, 7-OH AA I 12.41, n = 6, read-out: t 1/2z (converted)): 2.4 h | Short-term stability (RSD/%) [2, 9]: 8.6% | Short-term stability (RSD/%) [2, 10]: 5.0% | Short-term stability (RSD/%) [2, 11]: 11.7% | Post-preparation stability (RSD/%) [2, 9]: 2.8% | Post-preparation stability (RSD/%) [2, 10]: 4.5% | Post-preparation stability (RSD/%) [2, 11]: 3.1% | Long-term stability (RSD/%) [2, 9]: 12.7% | Long-term stability (RSD/%) [2, 10]: 5.2% | Long-term stability (RSD/%) [2, 11]: 2.5% | Freeze-thaw stability (RSD/%) [2, 9]: 14.3% | Freeze-thaw stability (RSD/%) [2, 10]: 4.8% | Freeze-thaw stability (RSD/%) [2, 11]: 8.4%
